Data set [1] relates to E2F transcription factors. As to the kind of experiment: E2F reporter gene assay (A549-derived luciferase reporter cell line). Format: cell-based. The note with it: Homo sapiens. On the procedure:
A similar system to the p53 reporter assay described above was used, with the exception that it was designed to be responsive to E2F transcription factors rather than p53. An A549-derived cell line stably transfected with an E2F response element and a luciferase reporter gene was created. The genetic expression cassette construct used was from Clontech (Mercury™ Cell Cycle Profiling System). Assays were carried out as described above.
Representative bisarylsulfonamides were tested in the E2F gene reporter assay described in Example 6.

Data set [2] concerns AGS. Put plainly: 72-h MTT cytotoxicity assay, AGS. Format: cell-based. The settings on record: Homo sapiens, 72-h MTT, Table 1, read-out: IC50 Anti-proliferative effect on cell line AGS. As to the method:
(§1) The fluorescence polarisation competitive HDM2 binding assay described in Example 3 was used. Furthermore, the anti-proliferative potency of the compounds against three human tumour cell lines with different genetic make-up was also determined. […] The cell lines used were as follows: AGS, gastric adenocarcinoma, wild-type p53; H1299, large cell lung carcinoma, p53 null, low HDM2; SJSA-1, primitive multipotential bone sarcoma, wild-type p53, overexpressed HDM2.
(§2) Representative bisarylsulfonamide compounds were tested on a panel of transformed and non-transformed human cell lines, using a standard 72-h MTT cytotoxicity assay [Haselsberger K et al, ibid].

For data set [3], the system named is H1299. As to the kind of experiment: 72-h MTT cytotoxicity assay, H1299. The settings on record: Homo sapiens, NCI-H1299; 72-h MTT; Table 1; read-out: IC50 Anti-proliferative effect on cell line H 1299. Format: cell-based. On the procedure:
as §1, §2
In general terms: Formazan colour is commonly taken as a measure of viable cells.

Data set [4] has as its target T1, HDM2 (Homo sapiens, UniProt Q00987).
T1 construct: Recombinant HDM2 (1.5 μg per well) in TBS-BSA buffer
As to the kind of experiment: Fluorescence polarisation competitive HDM2 binding assay. The procedure, abridged: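 Recombinant HDM2 (1.5 μg/well) was preincubated 5 min at room temperature with serially diluted compound in 50 mM Tris pH 7.4, 150 mM NaCl, 0.1% BSA, 5% DMSO final. Fluorescein-labelled p53 peptide (0.2 μM) was then added for 45 min. Polarisation was read at 485/520 nm and IC50 derived from dose-response curves.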
In general terms: Polarisation of emitted light reports the rotation of a fluorescent probe.

Data set [5] has as its system SJSA-1. Put plainly: 72-h MTT cytotoxicity assay, SJSA-1. Format: cell-based. The note with it: Homo sapiens, SJSA-1; 72-h MTT; Table 1; read-out: IC50 Anti-proliferative effect on cell line SJSA-1. On the procedure:
as §1, §2

For data set [6], the system named is p53. Put plainly: p53 reporter gene assay (U2OS-derived luciferase reporter cell line). The note with it: for Fold induction of luciferase activity: compared to basal luciferase activity, 16-h time point, at concentration of maximal induction; for Concentration (test compound concentration at which the p53 induction was maximal): p53 reporter, U2OS-derived cell line. A general note: A reporter such as luciferase makes a cellular process visible.
Procedure: A dual assay assessing both cell viability and p53 response was employed. A U2OS-derived cell line stably transfected with a p53 response element and a luciferase reporter gene was created. […] After seeding of cells into 96-well tissue culture plates, treatment with test compounds, and incubation for the desired duration, the cell proliferation reagent WST-1 (Roche Molecular Biochemicals) was used to determine cell viability. The Bright-Glo™ Luciferase Assay System (Promega) was used to measure luciferase activity. The data from the cell viability assay was used to normalise data from the luciferase assay.

Setting [7] is: after 3-h treatment with test compounds, read-out: IC50 E2F reporter, Non-synchronised cells.
Setting [8] is: after 3-h treatment, synchronisation with 0.3 mM mimosine for 24 h, followed by wash-out, read-out: IC50 E2F reporter, Synchronised cells.
Setting [9] is: fluorescence polarisation format, Table 1, read-out: IC50 In vitro competitive HDM2 binding assay.
Where [10] appears, read: fluorescence polarisation assay, Table 3, read-out: In vitro competitive HDM2 binding assay IC50.

Where two headings read alike, the source gives them in different places.

T1 sequence (Q00987 whole entry): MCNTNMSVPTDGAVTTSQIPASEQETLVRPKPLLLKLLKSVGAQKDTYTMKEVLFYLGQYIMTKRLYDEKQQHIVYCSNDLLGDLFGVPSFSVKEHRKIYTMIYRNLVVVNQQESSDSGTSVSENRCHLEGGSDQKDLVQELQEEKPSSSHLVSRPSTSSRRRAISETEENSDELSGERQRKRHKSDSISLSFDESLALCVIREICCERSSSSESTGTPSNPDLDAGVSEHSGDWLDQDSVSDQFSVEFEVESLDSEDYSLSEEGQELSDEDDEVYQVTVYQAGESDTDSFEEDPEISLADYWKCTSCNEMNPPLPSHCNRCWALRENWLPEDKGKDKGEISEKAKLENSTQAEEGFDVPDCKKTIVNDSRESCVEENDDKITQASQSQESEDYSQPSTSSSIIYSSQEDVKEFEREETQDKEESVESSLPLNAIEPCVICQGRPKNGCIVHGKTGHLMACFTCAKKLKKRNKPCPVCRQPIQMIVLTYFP

For orientation: IC50 means the midpoint of a concentration-inhibition curve. Turning to `O=[N+]([O-])c1cc(S(=O)(=O)Nc2ccc(O)cc2)sc1Cl` [Compound 5, 5-Chloro-4-nitrothiophene-2-sulfonic acid (4-hydroxyphenyl)amide], the IC50 in data set [1] (setting [7]) was 73.3 ± 33.4 µM; in data set [1] (setting [8]), 72 ± 31 µM; in data set [2], 2.2 ± 0.6 µM; in data set [3] it was 8.7 ± 2.2 µM; in data set [4] (setting [9]) it was 105 ± 26 µM; in data set [5] it was 24 ± 2.1 µM.
In the case of `O=[N+]([O-])c1cc(S(=O)(=O)Nc2ccc(Cl)cc2)ccc1Cl` [Compound 38, 4-Chloro-N-(4-chlorophenyl)-3-nitro-benzenesulfonamide], the IC50 in data set [2] came out at 16 ± 4 µM; in data set [3], 11 ± 4 µM; in data set [4] (setting [10]), 231 ± 13 µM; in data set [4] (setting [9]), 232 ± 13 µM; in data set [5], 22 ± 4 µM. For the same compound, in data set [6], the “Fold induction of luciferase activity” value was 4 fold. The “Concentration (test compound concentration at which the p53 induction was maximal)” value (from here on “Concentration”) in data set [6] was 13 µM.
For the compound `O=[N+]([O-])c1cc(S(=O)(=O)Nc2cc(Cl)cc(Cl)c2)sc1Cl` [Compound 39, 5-Chloro-4-nitrothiophene-2-sulfonic acid (3,5-dichlorophenyl)-amide], the IC50 in data set [1] (setting [7]) was found to be 90 µM; in data set [2] it was 4.9 ± 1.6 µM; in data set [3], 12.1 ± 4 µM; in data set [4] (setting [10]), 46.1 ± 3.4 µM; in data set [4] (setting [9]), 46.1 ± 3.4 µM; in data set [5], 27.2 ± 0.4 µM. Moreover, the “Fold induction of luciferase activity” value in data set [6] is given as 64 fold. Further, the “Concentration” value in data set [6] turned out to be 15 µM.
For `O=[N+]([O-])c1cc(S(=O)(=O)Nc2cc(F)cc(F)c2)sc1Cl` [Compound 40, 5-Chloro-4-nitrothiophene-2-sulfonic acid (3,5-difluorophenyl)-amide], the half-maximal inhibitory concentration (IC50) amounted to 99.5 µM in data set [1] (setting [7]); 4 ± 0.3 µM in data set [2]; 10.6 ± 0.4 µM in data set [3]; 59.6 ± 10.9 µM in data set [4] (setting [10]); 59.6 ± 10.5 µM in data set [4] (setting [9]); 26.4 ± 0.2 µM in data set [5]. Besides, the “Fold induction of luciferase activity” value in data set [6] worked out at 68 fold. In addition, the “Concentration” value in data set [6] was 13 µM.
As to `O=S(=O)(Nc1ccc(C(F)(F)F)cc1)c1cnc(Cl)c(Br)c1` [Compound 41, 5-Bromo-6-chloropyridine-3-sulfonic acid (4-trifluoromethylphenyl)amide], the IC50 in data set [1] (setting [7]) was 76.6 µM; in data set [1] (setting [8]) it was 84 µM; in data set [2] it was 31 ± 2 µM; in data set [3] it was 28 µM; in data set [4] (setting [9]), 258 ± 12 µM; in data set [5], 53 ± 3 µM.
With `O=[N+]([O-])c1cc(S(=O)(=O)NCc2ccc(F)cc2)sc1Cl` [Compound 45, 5-Chloro-4-nitrothiophene-2-sulfonic acid 4-fluorobenzylamide], the IC50 turned out to be 7.5 ± 4.4 µM in data set [2]; 11.1 ± 3.1 µM in data set [3]; 16 ± 3.7 µM in data set [4] (setting [10]); 16 ± 3.7 µM in data set [4] (setting [9]); 11.5 ± 3 µM in data set [5]. In addition, the “Fold induction of luciferase activity” value in data set [6] turned out to be 67 fold. For the same compound, the “Concentration” value in data set [6] stood at 15 µM.
For `CN(c1ccc(C(F)(F)F)cc1)S(=O)(=O)c1cc([N+](=O)[O-])c(Cl)s1` [Compound 50, 5-Chloro-4-nitrothiophene-2-sulfonic acid methyl-(4-trifluoromethylphenyl)amide], the IC50 in data set [2] is 30.3 ± 0.3 µM; in data set [3], 34.7 ± 6.1 µM; in data set [4] (setting [10]) it was 7.3 ± 0.6 µM; in data set [4] (setting [9]), 7.3 ± 0.6 µM; in data set [5], 35.4 ± 11.5 µM. For the same compound, in data set [6], the “Fold induction of luciferase activity” value was found to be 21 fold. Moreover, the “Concentration” value in data set [6] worked out at 39 µM.
As for `O=[N+]([O-])c1cc(S(=O)(=O)NCc2cc(Cl)cc(Cl)c2)sc1Cl` [Compound 54, 5-Chloro-4-nitro-thiophene-2-sulfonic acid 3,5-dichloro-benzylamide], the IC50 in data set [2] is 5.6 ± 0.2 µM; in data set [3], 9.7 ± 2.9 µM; in data set [4] (setting [10]) it was 20.2 ± 1.3 µM; in data set [4] (setting [9]), 20.2 ± 1.3 µM; in data set [5], 12 ± 0.4 µM. Besides, in data set [6], the “Fold induction of luciferase activity” value is recorded as 90 fold. The “Concentration” value in data set [6] stood at 10 µM.
For `O=[N+]([O-])c1cc(S(=O)(=O)NCc2cc(F)cc(F)c2)sc1Cl` [Compound 55, 5-Chloro-4-nitro-thiophene-2-sulfonic acid 3,5-difluoro-benzylamide], the half-inhibitory concentration (IC50) in data set [2] was 7 µM; in data set [3], 9.3 ± 2.5 µM; in data set [4] (setting [10]) it was 27 ± 10.1 µM; in data set [4] (setting [9]) it was 27 ± 10.1 µM; in data set [5], 13.3 ± 2.1 µM. In addition, the “Fold induction of luciferase activity” value in data set [6] is on record as 53 fold. Moreover, the “Concentration” value in data set [6] amounted to 10 µM.
As for `CC(NS(=O)(=O)c1cc([N+](=O)[O-])c(Cl)s1)c1ccc(F)cc1` (stereo not shown) [Compound 57, 5-Chloro-4-nitro-thiophene-2-sulfonic acid [1-(4-fluoro-phenyl)-ethyl]-amide], the half-maximal inhibitory concentration (IC50) in data set [2] amounted to 1.7 ± 0.3 µM; in data set [3], 2.7 ± 0.6 µM; in data set [4] (setting [10]), 31.1 ± 5.6 µM; in data set [4] (setting [9]), 31.1 ± 5.6 µM; in data set [5], 5.9 ± 0.2 µM. In data set [6], the “Fold induction of luciferase activity” value came out at 25 fold. Also, in data set [6], the “Concentration” value stood at 7 µM.
With `O=[N+]([O-])c1cc(S(=O)(=O)NCCc2c[nH]c3cc(Cl)ccc23)sc1Cl` [Compound 60, 5-Chloro-4-nitro-thiophene-2-sulfonic acid [2-(6-chloro-1H-indol-3-yl)-ethyl]-amide], the values for the IC50 in data set [1] (setting [7]), in data set [4] (setting [10]) and in data set [4] (setting [9]) were 29.2 ± 6.8 µM, 29 ± 6 µM and 29 ± 6 µM, respectively. For the same compound, the “Fold induction of luciferase activity” value in data set [6] came to 48 fold. In data set [6], the “Concentration” value is 7.5 µM.
For the compound `Cc1ccc(NS(=O)(=O)c2cc([N+](=O)[O-])c(Cl)s2)cc1` [Compound 63, 5-Chloro-4-nitro-thiophene-2-sulfonic acid p-tolylamide], the IC50 in data set [2] turned out to be 1.7 ± 0.6 µM; in data set [3], 3.9 ± 0.9 µM; in data set [4] (setting [10]) it was 35 ± 8 µM; in data set [4] (setting [9]), 35 ± 8 µM; in data set [5], 5.7 ± 1.6 µM. In data set [6], the “Fold induction of luciferase activity” value is reported as 95 fold. In addition, in data set [6], the “Concentration” value was 6.4 µM.
Take `O=[N+]([O-])c1cc(S(=O)(=O)NCc2ccccc2)sc1Cl` [Compound 64, 5-Chloro-4-nitro-thiophene-2-sulfonic acid benzylamide]: the half-maximal inhibitory concentration (IC50) was determined as 44.6 ± 2.3 µM in data set [1] (setting [7]); 3.6 ± 0.2 µM in data set [2]; 6.3 ± 2.1 µM in data set [3]; 18 µM in data set [4] (setting [9]); 7.3 ± 1.7 µM in data set [5].
As to `O=[N+]([O-])c1cc(S(=O)(=O)N(Cc2ccccc2)c2ccc(Cl)cc2)sc1Cl` [Compound 65, 5-Chloro-4-nitro-thiophene-2-sulfonic acid benzyl-(4-chloro-phenyl)-amide], the IC50 in data set [2] was 5.2 ± 2.2 µM; in data set [3], 10.8 ± 4.3 µM; in data set [4] (setting [10]) it was 7.4 ± 1 µM; in data set [4] (setting [9]), 7.4 ± 1 µM; in data set [5] it was 11.1 ± 6.7 µM. Moreover, in data set [6], the “Fold induction of luciferase activity” value came out at 74 fold. Further, in data set [6], the “Concentration” value was found to be 10 µM.
With `COc1ccc(N(Cc2ccccc2)S(=O)(=O)c2cc([N+](=O)[O-])c(Cl)s2)cc1` [Compound 66, 5-Chloro-4-nitro-thiophene-2-sulfonic acid benzyl-(4-methoxy-phenyl)-amide], the IC50 in data set [2] was found to be 2.4 ± 0.2 µM; in data set [3], 3.9 ± 0.5 µM; in data set [4] (setting [10]) it was 14.7 ± 0.9 µM; in data set [4] (setting [9]) it was 14.7 ± 0.9 µM; in data set [5], 3.9 ± 1.3 µM. The “Fold induction of luciferase activity” value in data set [6] was found to be 65 fold. Besides, the “Concentration” value in data set [6] is 4.2 µM.
Regarding `Cc1ccc(S(=O)(=O)NCCc2c[nH]c3ccc(Cl)cc23)cc1[N+](=O)[O-]` [Compound 82, N-[2-(5-Chloro-1H-indol-3-yl)-ethyl]-4-methyl-3-nitro-benzenesulfonamide], the IC50 turned out to be 50 µM in data set [2], 49 µM in data set [3], 338 ± 111 µM in data set [4] (setting [9]) and 65 ± 4 µM in data set [5].
Take `O=[N+]([O-])c1ccc(NS(=O)(=O)c2cc(C(F)(F)F)cc(C(F)(F)F)c2)cc1Cl` [Compound 105, N-(3-Chloro-4-nitro-phenyl)-3,5-bis-trifluoromethyl-benzenesulfonamide]: the half-inhibitory concentration (IC50) in data set [2] is 24 ± 3 µM; in data set [3], 25 ± 1 µM; in data set [4] (setting [9]), 153 ± 18 µM; in data set [5], 37 ± 18 µM.

Values taken from US20050215548A1 (Cyclacel Limited, priority 2002, published 2005).
